The nature of data set [1]: physchem. The note with it: saline.
Data set [2] in a line: physchem. The note with it: methanol:water:HCl, pH 1.

≈ marks a conversion by molar mass, not a printed value.

`Clc1cccc(Nc2nnc(-c3ccccc3)c3ccccc23)c1` gave a solubility at 24 h in the data set “physchem [1]” of 63 µg/mL (≈ 190 µM).

As for `COc1ccc(CNc2nn(C)c3ccc(C(F)(F)F)cc23)cc1`, the share remaining at 96 h in the data set “physchem [2]” was 100%. In the case of `COc1ccc(CNc2nn(-c3cccnc3)c3ccc(C(F)(F)F)cc23)cc1`, the amount remaining at 96 h in the data set “physchem [2]” was 100%. Besides, the solubility at 24 h in “physchem [1]” was 15 µg/mL (≈ 37.7 µM).

For the origin of these results see ChEMBL document CHEMBL4396898, “Design and synthesis of 3-aminophthalazine derivatives and structural analogues as PDE5 inhibitors: anti-allodynic effect against neuropathic pain in a mouse model” (Eur J Med Chem, 2019).
